Data on six compounds can be found in patent EP0326331B1, “Substituted quinolines and cinnolines” (Dow AgroSciences LLC, priority 1988, dated 1989).

Read-outs that look alike come from different tables or passages of the source.

Assay [1] has as its system Erysiphe graminis tritici (powdery mildew). Description: Test 1 greenhouse foliar spray screen, powdery mildew on wheat. To be noted: for POWD MDEW: disease control rating, foliar spray on wheat, 400 ppm (+++ at 100 ppm); for pest or weed control at 400 ppm: Blumeria graminis, foliar, Test 1, foliar spray on wheat, disease control rating at 400 ppm / 100 ppm, read-out: POWD MDEW. The class given is in vivo.

The test system of assay [2] is Pyricularia oryzae (rice blast). Description: whole plant or invertebrate. The class given is in vivo. To be noted: for RICE BLAST: disease control rating, foliar spray on rice, 400 ppm (+++ at 100 ppm); for activity against rice blast: summary statement in the description; for pest or weed control at 400 ppm: Pyricularia oryzae, foliar, read-out: RICE BLAST, Test 1, foliar spray on rice, disease control rating at 400 ppm / 100 ppm.

Assay [3] deals with Puccinia recondita tritici (leaf rust). Description: Test 1 greenhouse foliar spray screen, leaf rust on wheat. To be noted: for LEAF RUST: disease control rating, foliar spray on wheat, 400 ppm (+++ at 100 ppm); for pest or weed control at 400 ppm: Puccinia recondita, foliar, Test 1, foliar spray on wheat, disease control rating at 400 ppm / 100 ppm. The class given is in vivo.

The test system of assay [4] is Botrytis cinerea (gray mold). Description: Test 1 greenhouse foliar spray screen, gray mold on grape berries. The class given is in vivo. To be noted: for GRAY MOLD: disease control rating, spray on grape berries, 400 ppm (+++ at 100 ppm); for pest or weed control at 400 ppm: Botrytis cinerea, foliar, Test 1, spray on grape berries, disease control rating at 400 ppm / 100 ppm.

The subject of assay [5] is Pseudoperonospora cubensis (downy mildew). Description: Test 1 greenhouse foliar spray screen, downy mildew on squash. The format is in vivo. To be noted: for DOWN MDEW: disease control rating, foliar spray on squash, 400 ppm (+++ at 100 ppm); for activity against downy mildew: summary statement in the description; for pest or weed control at 400 ppm: Pseudoperonospora cubensis, foliar, Test 1, foliar spray on squash, disease control rating at 400 ppm / 100 ppm, read-out: DOWN MDEW.

The subject of assay [6] is Cercospora beticola (leaf spot). Description: Test 1 greenhouse foliar spray screen, leaf spot on sugar beet. The format is in vivo. To be noted: for LEAF SPOT: disease control rating, foliar spray on sugar beet, 400 ppm (+++ at 100 ppm); for pest or weed control at 400 ppm: Cercospora beticola, Test 1, foliar spray on sugar beet, disease control rating at 400 ppm / 100 ppm.

The test system of assay [7] is Venturia inaequalis (apple scab). Description: Test 1 greenhouse foliar spray screen, apple scab on apple seedling. The format is in vivo. To be noted: for APPL SCAB: disease control rating, foliar spray on apple seedling, 400 ppm (+++ at 100 ppm); for pest or weed control at 400 ppm: Venturia inaequalis, Test 1, foliar spray on apple seedling, disease control rating at 400 ppm / 100 ppm, read-out: APPL SCAB.

For assay [8], the system named is Septoria tritici (leaf blotch). Description: Test 1 greenhouse foliar spray screen, leaf blotch on wheat. The class given is in vivo. To be noted: for LEAF BLOT: disease control rating, foliar spray on wheat, 400 ppm (+++ at 100 ppm); for pest or weed control at 400 ppm: Zymoseptoria tritici, Test 1, foliar spray on wheat, disease control rating at 400 ppm / 100 ppm, read-out: LEAF BLOT.

A further assay concerns Plasmopara viticola. Description: Field tests against plant pathogens. The format is in vivo. To be noted: field test, crop grape. The text has this: Selected compounds were field tested against a variety of plant pathogens. […]
Assay [9] relates to southern armyworm (Spodopetra eridania Cramer). Description: Mite/insect screen, SAW. The format is in vivo. To be noted: Spodoptera eridania, percent mortality, read-out: SAW RESULTS %. The gist of the method:
(§1)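 Read-out: percent mortality after standard exposure periods. Test solutions were water dilutions of compound dissolved in acetone/alcohol (50:50) with emulsifier blends; leaves were sprayed to runoff on both surfaces and air-dried for one hour before exposure.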

Assay [10] concerns Twospotted spider mites (Tetranychus urticae Koch). Description: Mite/insect screen, SM. The class given is in vivo. To be noted: for mortality at 200 ppm / mortality at 400 ppm: Tetranychus urticae, percent mortality, read-out: SM RESULTS %. The gist of the method:
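Foliar spray to runoff (10 psi), 1 h drying; aqueous dilutions from acetone/alcohol emulsifier stock. Mortality (%) after standard exposure.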

In assay [11] the test system is melon aphids (Aphis gossypii Glover). Description: Mite/insect screen, MA. The format is in vivo. To be noted: Aphis gossypii, percent mortality, read-out: MA RESULTS %. The procedure, abridged:
as §1

In a further assay the test system is corn rootworm. Description: Mite/insect screen, CRW. The class given is in vivo. To be noted: percent mortality, read-out: CRW RESULTS %. The procedure, abridged:
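Read-out: % mortality after standard exposure. Formulation: acetone/alcohol (50:50) with emulsifiers at 23 g and 13 g per liter, water-diluted to final test levels.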

For a further assay, the system named is plant pathogens. Description: Fungicidal efficacy against a broad spectrum of plant pathogens (summary of screen). The class given is in vivo. To be noted: summary statement in the description.
Another assay has as its system CUCURBIT DOWNY MILDEW. Description: Greenhouse combination test with known fungicide, foliar spray. To be noted: 1-9 rating scale, time 4 hours.
The subject of the next assay is CUCURBIT POWDERY MILDEW. The assay is described as above. To be noted: 1-9 rating scale, time 4 hours.
The mark [12] stands for this setting: foliar, rate 200 ppm, foliar spray on squash.
Where [13] appears, read: foliar, rate 400 ppm, foliar spray on squash.

Procedure for CUCURBIT DOWNY MILDEW: (§2) The test compounds were formulated for application by dissolving 50 mg of the compound into 1.25 ml of solvent. The solvent was prepared by mixing 50 ml of "Tween 20" with 475 ml of acetone and 475 ml of ethanol. The solvent/compound solution was diluted to 125 ml with deionized water. The resulting formulation contains 400 ppm test chemical. Lower concentrations were obtained by serial dilution with the solvent-surfactant mixture.
(§3) The formulated technical compounds were sprayed on all foliar surfaces of the host plants (or cut berry) to past run-off. Single pots of each host plant were placed on raised, revolving pedestals in a fume hood. Test solutions were sprayed on all foliar surfaces. All treatments were allowed to dry and the plants were inoculated with the appropriate pathogens within 2-4 hours.
(§4) In the tables, the time given under "Time in hours" is the number of hours elapsing between treatment and inoculation. […] In such cases, curative activity was being tested. […] In such cases, residual or protectant activity was tested. […] The results were evaluated on a 1-9 rating scale. These ratings represent the following percent disease control: 1 = 0-19%, 2 = 20-29%, 3 = 30-39%, 4 = 40-59%, 5 = 60-74%, 6 = 75-89%, 7 = 90-96%, 8 = 97-99%, and 9 = 100%.
Procedure for CUCURBIT POWDERY MILDEW: as §2, §3, §4

As for `Fc1cccc2c(NCCc3ccccc3C(F)(F)F)ccnc12` [Example 97, 8-fluoro-N-[2-[2-(trifluoromethyl)phenyl]ethyl]-4-quinolinamine], the “POWD MDEW” value in assay [1] is given as “+ (20-89% control at 400 ppm)”. In addition, in assay [2], the “RICE BLAST” value is “+++ (90-100% control at 100 ppm)”. Moreover, the “LEAF RUST” value in assay [3] is reported as “+++ (90-100% control at 100 ppm)”. The “GRAY MOLD” value in [4] is reported as “- (0-19% control at 400 ppm)”. The “DOWN MDEW” value in assay [5] is reported as “+++ (90-100% control at 100 ppm)”. Besides, the “activity against downy mildew” value in assay [5] is given as “particularly excellent activity”. The “LEAF SPOT” value in assay [6] is “+++ (90-100% control at 100 ppm)”. The “APPL SCAB” value in assay [7] is reported as “- (0-19% control at 400 ppm)”. Further, the “LEAF BLOT” value in assay [8] is “+++ (90-100% control at 100 ppm)”. Also, the “pathogens against which compounds of the invention showed activity” value in the assay with Plasmopara viticola is “Plasmopara viticola”. Besides, the mortality at 200 ppm turned out to be 0% in [9] (SAW, SM & MA RATE 200 PPM); 0% in assay [10] (SAW, SM & MA RATE 200 PPM); 0% in assay [11] (SAW, SM & MA RATE 200 PPM). In addition, in the assay with corn rootworm (CRW RATE 12.00 PPM), the mortality at 12 ppm was 0%.

Regarding `CC(C)c1ccc(CCNc2ccnc3c(F)cccc23)cc1` [Example 114, N-[2-[4-(i-propyl)phenyl]ethyl]-8-fluoro-4-quinolinamine], the “POWD MDEW” value in [1] is reported as “+++ (90-100% control at 100 ppm)”. Besides, in assay [2], the “RICE BLAST” value is “+++ (90-100% control at 100 ppm)” and the “activity against rice blast” value is “particularly excellent activity”. Further, in assay [3], the “LEAF RUST” value was “+++ (90-100% control at 100 ppm)”. Moreover, the “GRAY MOLD” value in assay [4] was “- (0-19% control at 400 ppm)”. Moreover, in [5], the “DOWN MDEW” value is “+++ (90-100% control at 100 ppm)” and the “activity against downy mildew” value was “particularly excellent activity”. The “LEAF SPOT” value in assay [6] is on record as “+++ (90-100% control at 100 ppm)”. In assay [7], the “APPL SCAB” value is “- (0-19% control at 400 ppm)”. The “LEAF BLOT” value in assay [8] is on record as “+++ (90-100% control at 100 ppm)”. The “activity against a broad spectrum of plant pathogens” value (“activity against a broad spectrum” for short) in the assay with plant pathogens is on record as “particularly excellent activity”. The mortality at 400 ppm in [9] (SAW, SM & MA RATE 400 PPM) amounted to 70%. Besides, the mortality at 400 ppm in [10] (SAW, SM & MA RATE 400 PPM) amounted to 100%. For the same compound, the activity as miticides entry in assay [10] (summary statement in the description) was “particularly excellent activity”. Besides, the mortality at 400 ppm in assay [11] (SAW, SM & MA RATE 400 PPM) turned out to be 30%. Moreover, the mortality at 24 ppm with corn rootworm (CRW RATE 24.00 PPM) was 0%.

As for `Cc1ccc(CCOc2ccnc3ccccc23)cc1` [Example 210, 4-[2-(4-methylphenyl)ethoxy]quinoline], the pest or weed control at 400 ppm in assay [1] was 90 to 100%; in assay [2] it was 90 to 100%; in [3] it was 90 to 100%; in assay [4], 0 to 19%; in assay [5], 90 to 100%; in assay [6], 20 to 89%. Besides, the pest or weed control at 400 ppm was 0 to 19% in assay [7] and 90 to 100% in [8]. Besides, in assay [5], the “activity against downy mildew” value is on record as “particularly excellent activity”. Also, the “activity against a broad spectrum” value with plant pathogens is given as “particularly excellent activity”. Moreover, the mortality at 200 ppm in assay [9] (setting [12]), in assay [10] (setting [12]) and in assay [11] (setting [12]) was 0% throughout. Further, the mortality at 12 ppm with corn rootworm (CRW rate 12.00 ppm) was found to be 0%.

In the case of `COc1ccccc1CCOc1ccnc2c(F)cccc12` [Example 228, 8-fluoro-4-[2-(2-methoxyphenyl)ethoxy]quinoline], the pest or weed control at 400 ppm in assay [1] lay within 90 to 100%; in assay [2], 90 to 100%; in assay [3], 90 to 100%; in [4] it was 0 to 19%; in assay [5] it was 90 to 100%; in assay [6], 20 to 89%. Also, the pest or weed control at 400 ppm in [7] and in assay [8] was 90 to 100% throughout. Also, in the assay on plant pathogens, the “activity against a broad spectrum” value is “particularly excellent activity”. Also, the mortality at 200 ppm in assay [9] (setting [12]), in assay [10] (setting [12]) and in assay [11] (setting [12]) was 0% each time. In addition, the mortality at 400 ppm in [9] (setting [13]) amounted to 0%; in [10] (setting [13]), 0%; in assay [11] (setting [13]) it was 80%. For the same compound, in the assay on corn rootworm (CRW rate 12.00 ppm), the mortality at 12 ppm amounted to 0%. Besides, the mortality at 24 ppm in the assay on corn rootworm (CRW rate 24.00 ppm) was 0%.

`CC(C)(C)c1ccc(CCCc2ccnc3c(F)cccc23)cc1` [Example 260, 4-[3-[4-(t-butyl)phenyl]propyl]-8-fluoroquinoline]: the pest or weed control at 400 ppm fell in the range of 90 to 100% in [1]; 90 to 100% in assay [2]; 90 to 100% in assay [3]; 0 to 19% in assay [4]; 90 to 100% in assay [5]; 20 to 89% in [6]. The pest or weed control at 400 ppm in [7] is 0 to 19%; in [8], 90 to 100%. Moreover, the “activity against rice blast” value in [2] is “particularly excellent activity”. Moreover, the “activity against a broad spectrum” value in the assay on plant pathogens is on record as “particularly excellent activity”. Moreover, the mortality at 200 ppm in assay [9] (setting [12]), in assay [10] (setting [12]) and in assay [11] (setting [12]) was 100% throughout. Besides, the mortality at 400 ppm in [9] (setting [13]) was 40%; in assay [10] (setting [13]) it was 0%; in [11] (setting [13]) it was 0%. Moreover, the mortality at 12 ppm with corn rootworm (CRW rate 12.00 ppm) was 0%. Moreover, the mortality at 24 ppm in the assay on corn rootworm (CRW rate 24.00 ppm) was 40%.

As to `OC(c1ccc(F)cc1)(c1cncnc1)c1ccccc1Cl` (stereo not drawn) [nuarimol, reference compound], the RESULTS in the assay with CUCURBIT DOWNY MILDEW (nuarimol alone 0.25 ppm) came to 1.0; in the assay with CUCURBIT DOWNY MILDEW (nuarimol alone 0.50 ppm), 1.0; in the assay with CUCURBIT DOWNY MILDEW (nuarimol alone 1.00 ppm) it was 1.0; in the assay with CUCURBIT DOWNY MILDEW (nuarimol alone 2.00 ppm) it was 1.0; in the assay with CUCURBIT POWDERY MILDEW (nuarimol alone 0.25 ppm), 6.0; with CUCURBIT POWDERY MILDEW (nuarimol alone 0.50 ppm), 7.0. Besides, the RESULTS in the assay with CUCURBIT POWDERY MILDEW (nuarimol alone 1.00 ppm) is on record as 8.0; with CUCURBIT POWDERY MILDEW (nuarimol alone 2.00 ppm), 9.0.
